For one assay, the target named is T1, c-kit kinase (Homo sapiens, UniProt P10721).
T1 construct: The c-kit (or kinase domain thereof) is an active kinase in AlphaScreen; poly-Histidine tag (in-house protein only) (cleaved yes); host or cells: E. coli BL21(DE3)RIL, co-expressed with PTP1B
In words: c-Kit biochemical assay, AlphaScreen, 10 μM ATP. The conditions noted are these: c-kit biochemical inhibitory activity; read-out: Biochemical activity (IC50 μM) Kit. The gist of the method: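 His-tagged c-Kit expressed in E. coli with co-expressed PTP1B (dephosphorylated), tag removed; 0.1 ng per reaction with biotinylated-peptide substrate in 50 mM HEPES pH 7.2, 5 mM MgCl2, 5 mM MnCl2, 5% DMSO, 10 μM ATP, 1 h at room temperature. Phosphorylation detected by AlphaScreen (streptavidin donor, PY20 acceptor beads); IC50 from 8-point 1:3 dilution series.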
Background: In Alpha technology, singlet oxygen from a donor bead excites a nearby acceptor bead.

For a further assay, the target named is T2, c-kit mutant D816V (Homo sapiens, UniProt P10721, D816V/DEL694-753).
T2 construct: residues 551-934, kinase insertion domain residues 694-753 deleted; 6x-histidine (N); made in house; host or cells: E. coli Arctic Express (DE3) RIL (Stratagene)
T2 sequence (P10721 with tags, fused parts or gaps DEL694-753/D816V): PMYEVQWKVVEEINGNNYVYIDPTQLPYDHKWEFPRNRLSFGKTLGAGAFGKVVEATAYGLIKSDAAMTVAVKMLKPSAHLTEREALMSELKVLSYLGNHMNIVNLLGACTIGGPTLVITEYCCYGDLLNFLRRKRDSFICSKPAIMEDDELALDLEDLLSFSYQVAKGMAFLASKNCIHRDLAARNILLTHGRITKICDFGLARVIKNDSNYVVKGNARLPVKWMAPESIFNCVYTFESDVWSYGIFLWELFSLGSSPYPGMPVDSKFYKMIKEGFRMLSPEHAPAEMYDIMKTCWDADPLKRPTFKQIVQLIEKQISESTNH
In words: c-Kit mutant D816V biochemical assay, AlphaScreen. The conditions noted are these: c-kit D816V biochemical inhibitory activity; read-out: Biochemical activity (IC50 μM) Kit D816V. The essentials: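 Purified His-tagged c-Kit D816V (E. coli-expressed) assayed in 25 mM HEPES pH 7.2 with Mg/Mn, 5% DMSO and 10 μM ATP, 30 min at room temperature, 8-point 1:3 dilutions. Phosphorylation detected by AlphaScreen with streptavidin donor and PY20 acceptor beads; IC50 from signal versus concentration.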

The IC50 is the concentration at which inhibition is half-maximal.

T1 sequence (P10721 26-976): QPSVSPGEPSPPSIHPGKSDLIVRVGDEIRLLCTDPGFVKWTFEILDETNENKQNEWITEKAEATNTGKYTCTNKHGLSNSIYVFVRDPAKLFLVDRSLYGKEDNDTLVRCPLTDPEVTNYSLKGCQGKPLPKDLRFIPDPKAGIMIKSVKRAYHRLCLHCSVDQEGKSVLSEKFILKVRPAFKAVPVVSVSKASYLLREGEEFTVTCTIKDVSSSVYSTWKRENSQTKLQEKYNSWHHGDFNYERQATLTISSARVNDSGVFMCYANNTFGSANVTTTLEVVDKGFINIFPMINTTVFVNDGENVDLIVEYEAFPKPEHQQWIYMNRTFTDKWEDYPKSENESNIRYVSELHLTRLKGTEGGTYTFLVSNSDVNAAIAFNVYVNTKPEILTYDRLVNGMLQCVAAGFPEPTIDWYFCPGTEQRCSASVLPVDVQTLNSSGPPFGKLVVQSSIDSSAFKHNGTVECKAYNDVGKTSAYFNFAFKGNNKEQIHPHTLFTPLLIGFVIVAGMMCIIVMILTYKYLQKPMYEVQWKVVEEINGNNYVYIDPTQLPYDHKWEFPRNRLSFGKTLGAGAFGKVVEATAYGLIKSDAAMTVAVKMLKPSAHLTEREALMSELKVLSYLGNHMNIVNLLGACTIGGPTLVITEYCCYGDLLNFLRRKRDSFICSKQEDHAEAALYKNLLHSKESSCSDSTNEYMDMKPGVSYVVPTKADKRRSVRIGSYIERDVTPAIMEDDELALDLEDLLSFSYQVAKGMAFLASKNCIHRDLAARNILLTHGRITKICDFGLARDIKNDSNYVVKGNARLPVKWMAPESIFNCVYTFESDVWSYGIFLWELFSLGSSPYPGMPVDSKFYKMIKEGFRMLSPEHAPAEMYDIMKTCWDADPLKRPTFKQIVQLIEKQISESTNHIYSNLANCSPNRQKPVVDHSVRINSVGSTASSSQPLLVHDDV

On to `CC(C)(C)OC(=O)N1CC=C(c2cc3ncnc(N4CCN(C(=O)NCc5ccc(F)cc5)CC4)c3s2)CC1` [P-0616, tert-butyl 4-[4-[4-[(4-fluorophenyl)methylcarbamoyl]piperazin-1-yl]thieno[3,2-d]pyrimidin-6-yl]-3,6-dihydro-2H-pyridine-1-carboxylate], for which the IC50 lay in the range of 1 to 10 µM on c-kit kinase and 0.0001 to 1 µM at c-kit mutant D816V.
`Cn1cc(-c2cc3ncnc(C4=CC(C)(C)NC(C)(C)C4)c3s2)cn1` [P-0617, 6-(1-methylpyrazol-4-yl)-4-(2,2,6,6-tetramethyl-1,3-dihydropyridin-4-yl)thieno[3,2-d]pyrimidine]: the IC50 on c-kit kinase and on c-kit mutant D816V was 10 to 200 µM in each case.
For `Cc1nn(C)c(C)c1-c1cc2ncnc(N3CCN(C(=O)NCc4ccc(F)cc4)CC3)c2s1` [P-0618, N-[(4-fluorophenyl)methyl]-4-[6-(1,3,5-trimethylpyrazol-4-yl)thieno[3,2-d]pyrimidin-4-yl]piperazine-1-carboxamide], the IC50 at c-kit kinase and on c-kit mutant D816V was 1 to 10 µM each time.
Take `Cc1nn(C)cc1-c1cc2ncnc(N3CCN(C(=O)NCc4ccc(F)cc4)CC3)c2s1` [P-0619, 4-[6-(1,3-dimethylpyrazol-4-yl)thieno[3,2-d]pyrimidin-4-yl]-N-[(4-fluorophenyl)methyl]piperazine-1-carboxamide]: the 50% inhibitory concentration (IC50) lay in the range of 1 to 10 µM at c-kit kinase and 0.0001 to 1 µM at c-kit mutant D816V.
As to `Cc1c(-c2cc3ncnc(N4CCN(C(=O)NCc5ccc(F)cc5)CC4)c3s2)cnn1C` [P-0620, 4-[6-(1,5-dimethylpyrazol-4-yl)thieno[3,2-d]pyrimidin-4-yl]-N-[(4-fluorophenyl)methyl]piperazine-1-carboxamide], the results for the IC50 on c-kit kinase and at c-kit mutant D816V were 1 to 10 µM and 0.0001 to 1 µM, respectively.
Take `Cn1cc(-c2cc3ncnc(-c4ccc(N)nc4)c3s2)cn1` [P-0621, 5-[6-(1-methylpyrazol-4-yl)thieno[3,2-d]pyrimidin-4-yl]pyridin-2-amine]: the IC50 at c-kit kinase and on c-kit mutant D816V was 1 to 10 µM throughout.
For `Cc1cc2ncnc(-c3ccc(NS(C)(=O)=O)cc3)c2s1` [P-0622, N-[4-(6-methylthieno[3,2-d]pyrimidin-4-yl)phenyl]methanesulfonamide], the IC50 is 10 to 200 µM at c-kit kinase and 1 to 10 µM at c-kit mutant D816V.
In the case of `Cc1ccc(S(=O)(=O)Nc2ccc(-c3ncnc4cc(C)sc34)cc2)cc1` [P-0623, 4-methyl-N-[4-(6-methylthieno[3,2-d]pyrimidin-4-yl)phenyl]benzenesulfonamide], the IC50 lay in the range of 1 to 10 µM at c-kit kinase and 0.0001 to 1 µM on c-kit mutant D816V.
For `O=C(NCc1ccc(F)cc1)N1CCN(c2ncnc3cc(-c4cnn(CCN5CCOCC5)c4)sc23)CC1` [P-0624, N-[(4-fluorophenyl)methyl]-4-[6-[1-(2-morpholinoethyl)pyrazol-4-yl]thieno[3,2-d]pyrimidin-4-yl]piperazine-1-carboxamide], the IC50 on c-kit kinase was 1 to 10 µM; on c-kit mutant D816V, 0.0001 to 1 µM.
Turning to `Cn1cc(-c2cc3ncnc(N4CCN(C(=O)NCc5ccccc5)CC4)c3s2)cn1` [P-0626, N-benzyl-4-[6-(1-methylpyrazol-4-yl)thieno[3,2-d]pyrimidin-4-yl]piperazine-1-carboxamide], the IC50 at c-kit kinase was in the range of 10 to 200 µM; at c-kit mutant D816V, 1 to 10 µM.
In the case of `O=C(NCc1ccc(F)cc1)N1CCN(c2ncnc3ccsc23)CC1` [P-0638, N-[(4-fluorophenyl)methyl]-4-thieno[3,2-d]pyrimidin-4-yl-piperazine-1-carboxamide], the IC50 at c-kit kinase and on c-kit mutant D816V was 10 to 200 µM each time.
`Cc1cc2c(N3CCN(C(=O)N[C@@H](C)c4cccc(Cl)c4)C(C)(C)C3)ncnc2[nH]1` [P-0641, N-[(1S)-1-(3-chlorophenyl)ethyl]-2,2-dimethyl-4-(6-methyl-7H-pyrrolo[2,3-d]pyrimidin-4-yl)piperazine-1-carboxamide]: the IC50 is 10 to 200 µM at c-kit kinase and 0.0001 to 1 µM on c-kit mutant D816V.
The like results for `C[C@H](NC(=O)N1CCN(c2ncnc3[nH]c(-c4ccc(F)cc4)cc23)CC1(C)C)c1ccc(F)cc1` [P-0642, N-[(1S)-1-(4-fluorophenyl)ethyl]-4-[6-(4-fluorophenyl)-7H-pyrrolo[2,3-d]pyrimidin-4-yl]-2,2-dimethyl-piperazine-1-carboxamide] were, in that order, 1 to 10 µM and 0.0001 to 1 µM.
The like results for `COc1cc(-c2cc3c(N4CCN(C(=O)N[C@@H](C)c5ccc(F)cc5)C(C)(C)C4)ncnc3[nH]2)ccn1` [P-0643] were, in that order, 1 to 10 µM and 0.0001 to 1 µM.
Take `Cc1cc2c(N3CCN(C(=O)N[C@@H](C)c4ccc(F)cc4)C(C)(C)C3)ncnc2[nH]1` [P-0644, N-[(1S)-1-(4-fluorophenyl)ethyl]-2,2-dimethyl-4-(6-methyl-7H-pyrrolo[2,3-d]pyrimidin-4-yl)piperazine-1-carboxamide]: the IC50 at c-kit kinase fell in the range of 10 to 200 µM; on c-kit mutant D816V it was 1 to 10 µM.
The like results for `Cc1cc2c(N3CCN(C(=O)N[C@@H](C)c4cccc(OC(F)F)c4)C(C)(C)C3)ncnc2[nH]1` [P-0645, N-[(1S)-1-[3-(difluoromethoxy)phenyl]ethyl]-2,2-dimethyl-4-(6-methyl-7H-pyrrolo[2,3-d]pyrimidin-4-yl)piperazine-1-carboxamide] were, in that order, 10 to 200 µM and 1 to 10 µM.
Regarding `Cc1cc2c(N3CCN(C(=O)N[C@@H](C)c4ccc(F)cc4)[C@H](C)C3)ncnc2[nH]1` [P-0646, (2R)-N-[(1S)-1-(4-fluorophenyl)ethyl]-2-methyl-4-(6-methyl-7H-pyrrolo[2,3-d]pyrimidin-4-yl)piperazine-1-carboxamide], the IC50 lay within 10 to 200 µM at c-kit kinase and 1 to 10 µM on c-kit mutant D816V.
The like results for `Cc1cc2c(N3CCN(C(=O)N[C@@H](C)c4cccc(Cl)c4)[C@H](C)C3)ncnc2[nH]1` [P-0647, (2R)-N-[(1S)-1-(3-chlorophenyl)ethyl]-2-methyl-4-(6-methyl-7H-pyrrolo[2,3-d]pyrimidin-4-yl)piperazine-1-carboxamide] were, in that order, 1 to 10 µM and 0.0001 to 1 µM.
With `Cc1cc2c(N3CCN(C(=O)N[C@@H](C)c4cccc(OC(F)F)c4)[C@H](C)C3)ncnc2[nH]1` [P-0648, (2R)-N-[(1S)-1-[3-(difluoromethoxy)phenyl]ethyl]-2-methyl-4-(6-methyl-7H-pyrrolo[2,3-d]pyrimidin-4-yl)piperazine-1-carboxamide], the IC50 fell in the range of 10 to 200 µM at c-kit kinase and 0.0001 to 1 µM at c-kit mutant D816V.
For the compound `COc1cc([C@H](C)NC(=O)N2CCN(c3ncnc4[nH]c(-c5ccc(F)cc5)cc34)C[C@H]2C)ccc1Cl` [P-0649, (2R)-N-[(1S)-1-(4-chloro-3-methoxy-phenyl)ethyl]-4-[6-(4-fluorophenyl)-7H-pyrrolo[2,3-d]pyrimidin-4-yl]-2-methyl-piperazine-1-carboxamide], the figures for the IC50 on c-kit kinase and on c-kit mutant D816V were 1 to 10 µM and 0.0001 to 1 µM, respectively.
The like results for `COc1cc(-c2cc3c(N4CCN(C(=O)N[C@@H](C)c5cccc(Cl)c5)C(C)(C)C4)ncnc3[nH]2)ccn1` [P-0650, N-[(1S)-1-(3-chlorophenyl)ethyl]-4-[6-(2-methoxy-4-pyridyl)-7H-pyrrolo[2,3-d]pyrimidin-4-yl]-2,2-dimethyl-piperazine-1-carboxamide] were, in that order, 1 to 10 µM and 0.0001 to 1 µM.
The like results for `COc1cc(-c2cc3c(C4=CCC(NS(=O)(=O)c5ccc(OC(F)(F)F)cc5)CC4)ncnc3[nH]2)ccn1` (stereo not drawn) [P-0654, N-[4-[6-(2-methoxy-4-pyridyl)-7H-pyrrolo[2,3-d]pyrimidin-4-yl]cyclohex-3-en-1-yl]-4-(trifluoromethoxy)benzenesulfonamide] were, in that order, 10 to 200 µM and 0.0001 to 1 µM.
Turning to `O=S(=O)(Nc1ccc(-c2ncnc3[nH]c(Cl)cc23)cc1)c1ccc(OC(F)F)cc1` [P-0655, N-[4-(6-chloro-7H-pyrrolo[2,3-d]pyrimidin-4-yl)phenyl]-4-(difluoromethoxy)benzenesulfonamide], the IC50 at c-kit kinase and on c-kit mutant D816V was 1 to 10 µM in each case.
On to `CC1(C)C=C(c2cc3c(N4CCC(NS(=O)(=O)c5ccc(OC(F)(F)F)cc5)CC4)ncnc3[nH]2)CC(C)(C)N1` [P-0662, N-[1-[6-(2,2,6,6-tetramethyl-1,3-dihydropyridin-4-yl)-7H-pyrrolo[2,3-d]pyrimidin-4-yl]-4-piperidyl]-4-(trifluoromethoxy)benzenesulfonamide], for which the IC50 at c-kit kinase and at c-kit mutant D816V was 1 to 10 µM throughout.
Regarding `Cc1nc(C)c(-c2cc3c(N4CCC(NS(=O)(=O)c5ccc(OC(F)(F)F)cc5)CC4)ncnc3[nH]2)s1` [P-0664, N-[1-[6-(2,4-dimethylthiazol-5-yl)-7H-pyrrolo[2,3-d]pyrimidin-4-yl]-4-piperidyl]-4-(trifluoromethoxy)benzenesulfonamide], the figures for the IC50 on c-kit kinase and on c-kit mutant D816V were 1 to 10 µM and 0.0001 to 1 µM, respectively.
The like results for `CCc1ccc(S(=O)(=O)NC2CCN(c3ncnc4[nH]c(-c5cnn(C)c5)cc34)CC2)s1` [P-0665, 5-ethyl-N-[1-[6-(1-methylpyrazol-4-yl)-7H-pyrrolo[2,3-d]pyrimidin-4-yl]-4-piperidyl]thiophene-2-sulfonamide] were, in that order, 0.0001 to 1 µM and 0.0001 to 1 µM.
Take `Cc1nn(C)cc1-c1cc2c(N3CCC(NS(=O)(=O)c4ccc(Cl)cc4)CC3)ncnc2[nH]1` [P-0667, 4-chloro-N-[1-[6-(1,3-dimethylpyrazol-4-yl)-7H-pyrrolo[2,3-d]pyrimidin-4-yl]-4-piperidyl]benzenesulfonamide]: the IC50 at c-kit kinase and on c-kit mutant D816V was 0.0001 to 1 µM in each case.

These data come from patent publication US10227357B2, “Compounds and methods for kinase modulation, and indications therefor” (Plexxikon Inc., priority 2012, dated 2019).
